For one assay, the target named is CDK4/cyclin D1 (Homo sapiens, UniProt P11802). The experiment in a line: CDK4/cyclin D1 Flashplate test in 96-well format. The class given is biochemical. Here is the method:
2. CDK4/cyclin D1 Protocol:
Purification of the CDK4-HA/cyclin D1-(His)6 Complex by IMAC (Immobilized Metal Affinity Chromatography):
Two recombinant baculoviruses bearing the human sequences coding, respectively, for CDK4-HA (C-terminal fusion with the hemaglutinin tag) and for cyclin D1-(His)6 are used to coinfect insect Sf9 cells. Sixty hours after the start of the coinfection, the cells are harvested by centrifugation and then frozen at −20° C. until the time of use.
CDK4/cyclin D1 Flashplate Test in 96-Well Format
A test in 96-well “Flashplate” plates coated with streptavidin is used to evaluate the inhibition of the CDK4/cyclin D1 kinase complex by the products of the invention. To perform this test, the biotinylated peptide substrate, a fragment of the pRb protein (biotinyl-[…]-amide) is dissolved at a concentration of 2 mM in kinase buffer (HEPES/NaOH 50 mM, NaCl 1 mM, MgCl2 5 mM, pH 7.5) in order to constitute a stock solution stored at −20° C. in the form of 110 μl aliquots. On the day of the experiment, an aliquot of this solution is thawed and diluted in kinase buffer containing 1 mM of dithiothreitol, and added to the buffer extemporaneously, in order to obtain a final peptide concentration of 2.571 μM. 70 μl of this solution are added to each well of the Flashplate in order to obtain a final substrate concentration of 1.8 μM during the enzymatic reaction, performed in a final volume of the reaction medium of 100 μl (cf. below). Intermediate dilutions of inhibitors (products of the invention) at various concentrations are prepared in DMSO from stock solutions at 10 mM in separate tubes. 1000 μM, 333.3 μM, 111.1 μM, 37.03 μM, 12.35 μM, 4.11 μM and 1.37 μM dilutions are thus prepared. 1 μl of each of these solutions (or 1 μl of DMSO for the controls) is then transferred into the wells of the test plate. Into each well are then added 19 μl of a solution of a mixture of adenosine triphosphate (ATP) and of ATPy^33P in the kinase buffer at a concentration of 5.26 μM of ATP total and 78.9 μCi/ml of ^33P. The enzymatic reaction is triggered by addition of 10 μl per well of a solution of CDK4/cyclin D1 at 250 nM in the kinase buffer containing 1 mM of dithiothreitol (or 10 μl of kinase buffer containing 1 mM of dithiothreitol for the reaction blanks).
After addition of all the reagents, the test plate is incubated at 30° C. with orbital stirring at 650 rpm. After the incubation, the plate is washed three times with 300 μl per well of PBS (phosphate-buffered saline, pH=7.4, without calcium or magnesium, reference 10010-015, Gibco BRL). The incorporation of ^33P into the substrate peptide is quantified by scintillation counting using a Packard Topcount.NXT machine. The inhibitory activity of the products of the invention is evaluated by measuring the inhibitory concentration that allows a 50% reduction in the enzymatic activity (IC50).

The target in another assay is CDK2/cyclin E (Homo sapiens, UniProt P24941). The experiment in a line: CDK2/cyclin E Flashplate test in 96-well format. The format is biochemical. To be noted: read-out: CDK2 IC50. Here is the method: 1. Protocol CDK2/cyclin E:
Purification of the CDK2/cyclin E-(His)6 Complex by IMAC (Immobilized Metal Affinity Chromatography):
Two recombinant baculoviruses bearing the human sequences coding, respectively, for CDK2 and cyclin E (the latter comprising a C-terminal hexahistidine tag) are used to coinfect insect Sf21 cells. Two to three days after the start of coinfection, the cells are harvested by centrifugation and then stored at −40° C. until the time of use. After thawing and mechanical lysis of the cells, the complex present in the lysis supernatant is purified by affinity chromatography on nickel (IMAC), and stored at −80° C.
CDK2/cyclin E Flashplate Test in 96-Well Format
A format in 96-well plates coated with streptavidin is used to test the activity of the compounds on the kinase activity of CDK2/cyclin E.
To perform this test, the biotinylated peptide substrate, a fragment of the pRb protein (biotinyl-[…]-OH) is dissolved at a concentration of 1 mM in kinase buffer (HEPES/NaOH 50 mM, NaCl 1 mM, MgCl2 5 mM, pH 7.5) in order to constitute a stock solution stored at −20° C. in the form of 110 μl aliquots. On the day of the experiment, an aliquot of this solution is thawed and diluted in kinase buffer containing 1 mM of dithiothreitol, and added to the buffer extemporaneously, in order to obtain a concentration of 14.3 μM. 70 μl of this solution are added to each well of the Flashplate in order to obtain a final substrate concentration of 10 μM during the enzymatic reaction, performed in a final volume of the reaction medium of 100 μl (cf. below).
Intermediate dilutions of inhibitors (products of the invention) at various concentrations are prepared in DMSO from stock solutions at 10 mM in separate tubes. 1000 μM, 333.3 μM, 111.1 μM, 37.03 μM, 12.35 μM, 4.11 μM and 1.37 μM dilutions are thus prepared. 1 μl of each of these solutions (or 1 μl of DMSO for the controls) is transferred into the wells of the test plate.
Into each well are then added 19 μl of a solution of a mixture of adenosine triphosphate (ATP) and of ATPy^33P in the kinase buffer at a concentration of 5.26 μM of ATP total and 52.6 μCi/ml of ^33P. The enzymatic reaction is triggered by addition of 10 μl per well of a solution of CDK2/cyclin E at 200 nM in the kinase buffer containing 1 mM of dithiothreitol (or 10 μl of kinase buffer containing 1 mM of dithiothreitol for the reaction blanks).
After addition of all the reagents, the plate is incubated at 30° C. with orbital stirring at 650 rpm.
When the incubation is complete, the plate is washed three times with 300 μl per well of PBS (phosphate-buffered saline, pH=7.4, without calcium or magnesium, reference 10010-015, Gibco BRL). The incorporation of ^33P into the peptide is quantified by scintillation counting using a Packard Topcount.NXT machine. The inhibitory activity of the products of the invention is evaluated by measuring the inhibitory concentration that allows a 50% reduction in the enzymatic activity (IC50).

Another assay concerns HeLa. In words: HeLa proliferation. To be noted: Homo sapiens, read-out: HeLa proliferation EC50 (nM) DG. The class given is cell-based.

From patent publication US7632952B2, “Benzothiazoles and the use thereof as medicaments” (Aventis Pharma S.A., priority 2004, dated 2009) come the findings set out here.

Molecules are shown by their SMILES. Counter-ions that a name gives are not always drawn.

Sequence of CDK4/cyclin D1 (P11802 whole entry): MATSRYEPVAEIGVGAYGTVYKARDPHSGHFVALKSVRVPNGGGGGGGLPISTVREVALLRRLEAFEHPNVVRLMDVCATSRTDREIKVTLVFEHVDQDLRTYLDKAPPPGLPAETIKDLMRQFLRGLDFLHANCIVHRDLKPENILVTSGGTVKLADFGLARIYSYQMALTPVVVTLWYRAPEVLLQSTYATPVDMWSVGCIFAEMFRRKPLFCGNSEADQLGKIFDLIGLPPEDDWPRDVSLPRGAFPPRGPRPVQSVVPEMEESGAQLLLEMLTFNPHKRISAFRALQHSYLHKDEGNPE
Sequence of CDK4/cyclin D1 (P24385 whole entry partner): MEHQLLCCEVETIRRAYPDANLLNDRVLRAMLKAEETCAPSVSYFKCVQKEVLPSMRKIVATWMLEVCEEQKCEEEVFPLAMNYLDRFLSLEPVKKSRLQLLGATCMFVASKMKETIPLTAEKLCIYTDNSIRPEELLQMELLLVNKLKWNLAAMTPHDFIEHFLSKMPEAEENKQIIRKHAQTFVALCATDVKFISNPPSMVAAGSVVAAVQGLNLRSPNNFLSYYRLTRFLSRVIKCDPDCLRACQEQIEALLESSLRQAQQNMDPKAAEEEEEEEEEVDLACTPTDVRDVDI

Take `CC(C)CNc1ccc(S(=O)(=O)Oc2ccc3nc(NC(=O)CCCCCCCN)sc3c2)cc1` [Example 29b, 4-Isobutylaminobenzenesulfonic acid 2-(8-aminooctanoylamino)-benzothiazol-6-yl ester hydro-chloride]: the IC50 (usually the concentration that gives 50% inhibition) at CDK4/cyclin D1 was found to be 368 nM; on CDK2/cyclin E it was 161 nM. For the same compound, the EC50 in the assay on HeLa was found to be 8960 nM.

Turning to `CC(C)N(CCNc1ccc(S(=O)(=O)Oc2ccc3nc(NC(=O)CCCCCCCN)sc3c2)cc1)C(C)C` [Example 40, 4-(2-diisopropylaminoethylamino)benzenesulfonic acid 2-(8-aminooctanoylamino)benzothiazol-6-yl ester], the IC50 stood at 253 nM on CDK4/cyclin D1 and 209 nM at CDK2/cyclin E. Besides, in the assay with HeLa, the EC50 was 7550 nM.

Turning to `CC(C)N(CCNc1ccc(S(=O)(=O)Oc2ccc3nc(NC(=O)CCCCCN)sc3c2)cc1)C(C)C` [Example 49, 4-(2-diisopropylaminoethylamino)benzenesulfonic acid 2-(6-aminohexanoylamino)benzothiazol-6-yl ester hydrochloride], the figures for the IC50 on CDK4/cyclin D1 and at CDK2/cyclin E were 328 nM and 183 nM, respectively. For the same compound, the EC50 with HeLa turned out to be 2700 nM.

For `CC(C)N(CCNc1ccc(S(=O)(=O)Oc2ccc3nc(NC(=O)CCCCCCN)sc3c2)cc1)C(C)C` [Example 52, 4-(2-diisopropylaminoethylamino)benzenesulfonic acid 2-(7-aminoheptanoylamino)benzothiazol-6-yl ester hydrochloride], the values for the IC50 against CDK4/cyclin D1 and at CDK2/cyclin E were 189 nM and 112 nM, respectively. Also, in the assay on HeLa, the EC50 was 2950 nM.

With `CC(C)N(CCNc1ccc(S(=O)(=O)Oc2ccc3nc(NC(=O)CCc4cccnc4)sc3c2)cc1)C(C)C` [Example 62, 4-(2-diisopropylaminoethylamino)benzenesulfonic acid 2-(3-pyrid-3-ylpropionylamino)benzothiazol-6-yl ester hydrochloride], the IC50 against CDK4/cyclin D1 came to 236 nM; at CDK2/cyclin E, 75 nM. The EC50 in the assay with HeLa amounted to 296 nM.

Turning to `COCC(=O)Nc1nc2ccc(OS(=O)(=O)c3ccc(NCCNC(C)C)cc3)cc2s1` [Example 67, 4-(2-isopropylaminoethylamino)benzenesulfonic acid 2-(2-methoxyacetylamino)benzothiazol-6-yl ester], the figures for the IC50 on CDK4/cyclin D1 and on CDK2/cyclin E were 1220 nM and 294 nM, respectively. In addition, the EC50 in the assay on HeLa was over 12500 nM.

As for `CC(C)NCCNc1ccc(S(=O)(=O)Oc2ccc3nc(NC(=O)C4CCCC4)sc3c2)cc1` [Example 69, 4-(2-isopropylaminoethylamino)benzenesulfonic acid 2-(cyclopentanecarbonylamino)benzothiazol-6-yl ester], the IC50 at CDK4/cyclin D1 worked out at 914 nM; on CDK2/cyclin E it was 299 nM. Besides, in the assay on HeLa, the EC50 amounted to 1130 nM.

Take `CCC(=O)Nc1nc2ccc(OS(=O)(=O)c3ccc(NCCNC(C)C)cc3)cc2s1` [Example 71, 4-(2-isopropylaminoethylamino)benzenesulfonic acid 2-propionylaminobenzothiazol-6-yl ester; compound with trifluoroacetic]: the IC50 on CDK4/cyclin D1 amounted to 424 nM; at CDK2/cyclin E, 175 nM. The EC50 in the assay on HeLa was 2170 nM.

Consider `CCCC(=O)Nc1nc2ccc(OS(=O)(=O)c3ccc(NCCNC(C)C)cc3)cc2s1` [Example 73, 4-(2-isopropylaminoethylamino)benzenesulfonic acid 2-butyrylaminobenzothiazol-6-yl ester; compound with trifluoroacetic acid], for which the concentration for half-maximal inhibition (IC50) was 246 nM against CDK4/cyclin D1 and 185 nM on CDK2/cyclin E. Further, the EC50 in the assay on HeLa stood at 249 nM.

On to `CC(C)NCCNc1ccc(S(=O)(=O)Oc2ccc3nc(NC(=O)C(C)C)sc3c2)cc1` [Example 75, 4-(2-isopropylaminoethylamino)benzenesulfonic acid 2-isobutyrylaminobenzothiazol-6-yl ester; compound with trifluoroacetic acid], for which the IC50 against CDK4/cyclin D1 is 874 nM; on CDK2/cyclin E it was 445 nM. Also, the EC50 with HeLa was found to be 195 nM.

With `CC(C)NCCNc1ccc(S(=O)(=O)Oc2ccc3nc(NC(=O)C4CCC4)sc3c2)cc1` [Example 77, 4-(2-isopropylaminoethylamino)benzenesulfonic acid (2-cyclobutanecarbonylamino)benzothiazol-6-yl ester; compound with trifluoroacetic acid], the IC50 against CDK4/cyclin D1 stood at 1010 nM; at CDK2/cyclin E, 419 nM. In addition, in the assay with HeLa, the EC50 was found to be 179 nM.

As for `CCCC(=O)Nc1nc2ccc(OS(=O)(=O)c3ccc(NCCN(C(C)C)C(C)C)cc3)cc2s1` [Example 79, 4-(2-diisopropylaminoethylamino)benzenesulfonic acid 2-butyrylaminobenzothiazol-6-yl ester hydrochloride], the IC50 against CDK4/cyclin D1 amounted to 70 nM; on CDK2/cyclin E, 43 nM. Further, the EC50 in the assay with HeLa was 140 nM.

Take `CCCC(=O)Nc1nc2ccc(OS(=O)(=O)c3ccc(NCC(C)(C)O)cc3)cc2s1` [Example 80, 4-(2-hydroxy-2-methylpropylamino)benzene-sulfonic acid 2-butyrylaminobenzothiazol-6-yl ester hydrochloride]: the IC50 against CDK4/cyclin D1 turned out to be 674 nM; on CDK2/cyclin E it was 57 nM. Also, the EC50 with HeLa is 408 nM.
